Measured values published in ChEMBL document CHEMBL5649167, “The SUV4-20 inhibitor A-196 verifies a role for epigenetics in genomic integrity” (Nat Chem Biol, 2017).
Calls of active or inactive are those of the source. The calls are words filed in the database; no cut-off is given here.

How the values were obtained:
Homo sapiens [1] = organism: Homo sapiens; experiment: Inhibition of human GABA-gated Cl- channel at 10 uM relative to control
Rattus norvegicus = organism: Rattus norvegicus; experiment: Inhibition of Rat alpha 1-Adrenoceptor at 10 uM relative to control
[2] = target: Alpha-2B adrenergic receptor (Homo sapiens) (UniProt P18089); experiment: Inhibition of human Alpha-2B adrenergic receptor expressed in HEK293T cells at 10 uM relative to control; assay type: cell-based
[3] = target: Substance-K receptor (Homo sapiens) (UniProt P21452); experiment: Inhibition of human Substance-K receptor at 10 uM relative to control
[4] = target: Melatonin receptor type 1A (Homo sapiens) (UniProt P48039); experiment: Inhibition of human Melatonin receptor type 1A at 10 uM relative to control
[5] = target: T1, Muscarinic acetylcholine receptor M1 (Homo sapiens) (UniProt P11229); experiment: Inhibition of human Muscarinic acetylcholine receptor M1 at 10 uM relative to control
T1 sequence (whole entry): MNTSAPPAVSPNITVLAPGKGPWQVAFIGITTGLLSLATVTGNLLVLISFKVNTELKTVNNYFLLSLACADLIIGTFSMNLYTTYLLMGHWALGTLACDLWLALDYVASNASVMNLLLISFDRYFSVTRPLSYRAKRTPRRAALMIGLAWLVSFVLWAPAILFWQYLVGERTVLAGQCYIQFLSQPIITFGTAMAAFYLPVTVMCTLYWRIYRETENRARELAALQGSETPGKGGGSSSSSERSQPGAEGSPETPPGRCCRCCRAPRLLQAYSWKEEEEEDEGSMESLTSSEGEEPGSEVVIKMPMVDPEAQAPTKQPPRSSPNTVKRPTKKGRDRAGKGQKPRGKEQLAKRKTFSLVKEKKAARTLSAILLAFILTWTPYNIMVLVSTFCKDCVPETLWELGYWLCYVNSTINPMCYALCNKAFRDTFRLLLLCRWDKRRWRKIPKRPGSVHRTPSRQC

[6] = target: Muscarinic acetylcholine receptor M3 (Homo sapiens) (UniProt P20309); experiment: Inhibition of human Muscarinic acetylcholine receptor M3 expressed in stable Cricetulus griseus CHO cells at 10 uM relative to control; assay type: cell-based
[7] = target: Mu-type opioid receptor (Homo sapiens) (UniProt P35372); experiment: Inhibition of human Mu-type opioid receptor expressed in stable HEK cells at 10 uM relative to control; assay type: cell-based
[8] = target: Type-1 angiotensin II receptor (Homo sapiens) (UniProt P30556); experiment: Inhibition of human AT1 at 10 uM relative to control
[9] = target: Alpha-1B adrenergic receptor (Homo sapiens) (UniProt P35368); experiment: Inhibition of human Alpha-1B adrenergic receptor expressed in HEK293T cells at 10 uM relative to control; assay type: cell-based
[10] = target: Histamine H4 receptor (Homo sapiens) (UniProt Q9H3N8); experiment: Inhibition of human Histamine H4 receptor expressed in HEK293T cells at 10 uM relative to control; assay type: cell-based
[11] = target: 5-hydroxytryptamine receptor 2B (Homo sapiens) (UniProt P41595); experiment: Inhibition of human 5-HT2B receptor expressed in stable HEK cells at 10 uM relative to control; assay type: cell-based
[12] = target: Adenosine receptor A2a (Homo sapiens) (UniProt P29274); experiment: Inhibition of human Adenosine receptor A2a at 10 uM relative to control
[13] = target: Vasoactive intestinal polypeptide receptor 1 (Homo sapiens) (UniProt P32241); experiment: Inhibition of human VPAC1 at 10 uM relative to control
[14] = target: Neuropeptide Y receptor type 2 (Homo sapiens) (UniProt P49146); experiment: Inhibition of human NPY-Y2 receptor at 10 uM relative to control
[15] = target: 5-hydroxytryptamine receptor 2A (Homo sapiens) (UniProt P28223); experiment: Inhibition of human 5-HT2A receptor expressed in HEK293T cells at 10 uM relative to control; assay type: cell-based
[16] = target: Histamine H2 receptor (Homo sapiens) (UniProt P25021); experiment: Inhibition of human Histamine H2 receptor expressed in stable HEK cells at 10 uM relative to control; assay type: cell-based
Embryonic stem cell = experiment: Antiproliferative activity against mouse Embryonic stem cell assessed as […] in H4K20me3 at 10 uM incubated for 3 days by immunofluorescence analysis; assay type: functional, cell-based; conditions: time 3.0 day
[17] = target: Neuromedin-K receptor (Homo sapiens) (UniProt P29371); experiment: Inhibition of human Neuromedin-K receptor at 10 uM relative to control
[18] = target: D(1A) dopamine receptor (Homo sapiens) (UniProt P21728); experiment: Inhibition of human D(1A) dopamine receptor at 10 uM relative to control
[19] = target: T1, Muscarinic acetylcholine receptor M1 (Homo sapiens); experiment: Inhibition of human Muscarinic acetylcholine receptor M1 expressed in stable Cricetulus griseus CHO cells at 10 uM relative to control; assay type: cell-based
[20] = target: Beta-3 adrenergic receptor (Homo sapiens) (UniProt P13945); experiment: Inhibition of human Beta-3 adrenergic receptor expressed in human Flp-In-293 cells at 10 uM relative to control; assay type: cell-based
[21] = target: Prostaglandin E2 receptor EP4 subtype (Homo sapiens) (UniProt P35408); experiment: Inhibition of human Prostanoid EP4 receptor at 10 uM relative to control
[22] = target: Histamine H3 receptor (Homo sapiens) (UniProt Q9Y5N1); experiment: Inhibition of human Histamine H3 receptor expressed in human Flp-In-293 cells at 10 uM relative to control; assay type: cell-based
Homo sapiens [23] = organism: Homo sapiens; experiment: Inhibition of human SKCa channel at 10 uM relative to control
[24] = target: 5-hydroxytryptamine receptor 2B (Homo sapiens) (UniProt P41595); experiment: Inhibition of human 5-hydroxytryptamine receptor 2B at 10 uM relative to control
[25] = target: Mu-type opioid receptor (Homo sapiens) (UniProt P35372); experiment: Inhibition of human Mu-type opioid receptor at 10 uM relative to control
[26] = target: D(3) dopamine receptor (Homo sapiens) (UniProt P35462); experiment: Inhibition of human D(3) dopamine receptor expressed in HEK293T cells at 10 uM relative to control; assay type: cell-based
[27] = target: 5-hydroxytryptamine receptor 5A (Homo sapiens) (UniProt P47898); experiment: Inhibition of human HTR5A expressed in Cricetulus griseus Flp-In-CHO cells at 10 uM relative to control; assay type: cell-based
[28] = target: 5-hydroxytryptamine receptor 2A (Homo sapiens) (UniProt P28223); experiment: Inhibition of human 5-HT2A at 10 uM relative to control
[29] = target: 5-hydroxytryptamine receptor 1D (Homo sapiens) (UniProt P28221); experiment: Inhibition of human 5-HT1D expressed in HEK293T cells at 10 uM relative to control; assay type: cell-based
[30] = target: Histamine H1 receptor (Homo sapiens) (UniProt P35367); experiment: Inhibition of human histamine H1 receptor expressed in stable HEK cells at 10 uM relative to control; assay type: cell-based
Sequence of Histamine H1 receptor (Homo sapiens) (P35367 whole entry): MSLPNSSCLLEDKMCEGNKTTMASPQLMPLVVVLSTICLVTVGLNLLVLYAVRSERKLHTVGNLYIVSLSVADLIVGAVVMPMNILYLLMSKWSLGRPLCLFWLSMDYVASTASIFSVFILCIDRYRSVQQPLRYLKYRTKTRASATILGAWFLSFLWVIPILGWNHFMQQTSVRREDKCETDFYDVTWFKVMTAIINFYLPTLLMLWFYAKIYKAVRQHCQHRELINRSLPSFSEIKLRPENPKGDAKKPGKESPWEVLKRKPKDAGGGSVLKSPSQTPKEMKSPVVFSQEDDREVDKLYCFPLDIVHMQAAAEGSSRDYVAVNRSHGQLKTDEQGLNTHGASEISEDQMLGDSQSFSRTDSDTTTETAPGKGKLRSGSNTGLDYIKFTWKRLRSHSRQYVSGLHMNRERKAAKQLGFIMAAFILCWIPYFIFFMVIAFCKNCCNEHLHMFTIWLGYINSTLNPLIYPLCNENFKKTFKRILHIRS

Sequence of Mu-type opioid receptor (Homo sapiens) (P35372 whole entry): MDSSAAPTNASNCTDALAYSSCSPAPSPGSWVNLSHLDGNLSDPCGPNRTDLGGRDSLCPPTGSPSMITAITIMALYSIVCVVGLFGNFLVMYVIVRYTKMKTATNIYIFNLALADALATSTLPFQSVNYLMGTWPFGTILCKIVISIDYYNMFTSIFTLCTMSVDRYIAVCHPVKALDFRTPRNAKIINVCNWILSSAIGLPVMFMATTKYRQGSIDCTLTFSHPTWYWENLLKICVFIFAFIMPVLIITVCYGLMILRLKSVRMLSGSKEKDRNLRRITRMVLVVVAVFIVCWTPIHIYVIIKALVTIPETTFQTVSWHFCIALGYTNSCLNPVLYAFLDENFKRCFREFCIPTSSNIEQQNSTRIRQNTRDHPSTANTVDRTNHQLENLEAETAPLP
Sequence of 5-hydroxytryptamine receptor 2B (Homo sapiens) (P41595 whole entry): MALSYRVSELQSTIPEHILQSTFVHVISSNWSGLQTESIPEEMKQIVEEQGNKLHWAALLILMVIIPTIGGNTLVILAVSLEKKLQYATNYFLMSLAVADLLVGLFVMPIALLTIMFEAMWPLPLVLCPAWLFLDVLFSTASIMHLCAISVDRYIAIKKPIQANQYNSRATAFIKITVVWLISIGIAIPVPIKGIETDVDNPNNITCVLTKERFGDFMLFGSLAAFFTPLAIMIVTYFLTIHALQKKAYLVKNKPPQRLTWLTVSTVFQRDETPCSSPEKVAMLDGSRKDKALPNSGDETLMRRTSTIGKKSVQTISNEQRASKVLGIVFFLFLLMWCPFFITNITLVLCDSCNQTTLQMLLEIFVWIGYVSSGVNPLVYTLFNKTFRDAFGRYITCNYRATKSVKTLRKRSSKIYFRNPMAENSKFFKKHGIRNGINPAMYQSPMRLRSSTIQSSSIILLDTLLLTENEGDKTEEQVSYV
Sequence of 5-hydroxytryptamine receptor 2A (Homo sapiens) (P28223 whole entry): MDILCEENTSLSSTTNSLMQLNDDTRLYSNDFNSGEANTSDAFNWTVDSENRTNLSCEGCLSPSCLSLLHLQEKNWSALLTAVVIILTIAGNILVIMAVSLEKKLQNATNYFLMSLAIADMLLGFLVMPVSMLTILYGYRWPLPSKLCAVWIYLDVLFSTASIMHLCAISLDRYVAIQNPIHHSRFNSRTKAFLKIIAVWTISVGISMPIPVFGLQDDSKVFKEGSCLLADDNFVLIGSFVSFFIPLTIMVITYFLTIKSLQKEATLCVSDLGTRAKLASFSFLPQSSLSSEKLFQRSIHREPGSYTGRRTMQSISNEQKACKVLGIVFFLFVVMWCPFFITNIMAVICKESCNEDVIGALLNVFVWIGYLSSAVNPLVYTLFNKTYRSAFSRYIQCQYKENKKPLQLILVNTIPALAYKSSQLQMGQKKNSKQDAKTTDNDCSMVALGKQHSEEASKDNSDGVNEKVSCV
Sequence of Muscarinic acetylcholine receptor M3 (Homo sapiens) (P20309 whole entry, looked up): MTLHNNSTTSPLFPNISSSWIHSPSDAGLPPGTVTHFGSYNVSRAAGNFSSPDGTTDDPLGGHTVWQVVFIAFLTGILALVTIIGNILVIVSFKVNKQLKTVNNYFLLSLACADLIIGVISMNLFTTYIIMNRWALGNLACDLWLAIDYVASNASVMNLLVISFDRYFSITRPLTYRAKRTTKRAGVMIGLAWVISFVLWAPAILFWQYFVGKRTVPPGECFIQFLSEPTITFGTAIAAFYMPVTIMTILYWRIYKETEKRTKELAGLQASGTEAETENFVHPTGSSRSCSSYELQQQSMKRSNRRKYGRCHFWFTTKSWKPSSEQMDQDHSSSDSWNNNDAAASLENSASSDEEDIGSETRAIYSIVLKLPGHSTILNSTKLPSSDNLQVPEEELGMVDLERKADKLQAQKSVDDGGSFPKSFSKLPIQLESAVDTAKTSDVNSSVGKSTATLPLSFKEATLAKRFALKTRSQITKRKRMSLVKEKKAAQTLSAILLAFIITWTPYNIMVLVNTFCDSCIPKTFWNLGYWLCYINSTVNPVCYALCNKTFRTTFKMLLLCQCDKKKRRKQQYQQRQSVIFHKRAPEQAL
Sequence of Substance-K receptor (Homo sapiens) (P21452 whole entry): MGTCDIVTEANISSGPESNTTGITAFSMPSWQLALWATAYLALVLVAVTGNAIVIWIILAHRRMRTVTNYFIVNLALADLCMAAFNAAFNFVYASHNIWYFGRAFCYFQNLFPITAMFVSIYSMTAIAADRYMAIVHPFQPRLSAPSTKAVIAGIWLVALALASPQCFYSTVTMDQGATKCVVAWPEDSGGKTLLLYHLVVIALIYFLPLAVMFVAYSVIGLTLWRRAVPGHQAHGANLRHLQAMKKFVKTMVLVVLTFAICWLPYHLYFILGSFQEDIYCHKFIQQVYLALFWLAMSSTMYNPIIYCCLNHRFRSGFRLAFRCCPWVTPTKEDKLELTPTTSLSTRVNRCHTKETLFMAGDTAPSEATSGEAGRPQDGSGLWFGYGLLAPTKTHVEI
Sequence of 5-hydroxytryptamine receptor 5A (Homo sapiens) (P47898 whole entry): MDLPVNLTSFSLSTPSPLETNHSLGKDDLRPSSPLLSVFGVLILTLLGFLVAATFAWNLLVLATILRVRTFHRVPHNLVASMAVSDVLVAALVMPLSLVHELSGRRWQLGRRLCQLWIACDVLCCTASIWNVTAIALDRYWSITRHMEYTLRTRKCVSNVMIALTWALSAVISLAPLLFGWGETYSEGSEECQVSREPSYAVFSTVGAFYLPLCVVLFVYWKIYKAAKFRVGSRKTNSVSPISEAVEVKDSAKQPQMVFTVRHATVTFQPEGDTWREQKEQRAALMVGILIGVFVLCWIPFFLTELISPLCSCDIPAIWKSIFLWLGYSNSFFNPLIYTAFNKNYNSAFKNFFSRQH
Sequence of 5-hydroxytryptamine receptor 1D (Homo sapiens) (P28221 whole entry): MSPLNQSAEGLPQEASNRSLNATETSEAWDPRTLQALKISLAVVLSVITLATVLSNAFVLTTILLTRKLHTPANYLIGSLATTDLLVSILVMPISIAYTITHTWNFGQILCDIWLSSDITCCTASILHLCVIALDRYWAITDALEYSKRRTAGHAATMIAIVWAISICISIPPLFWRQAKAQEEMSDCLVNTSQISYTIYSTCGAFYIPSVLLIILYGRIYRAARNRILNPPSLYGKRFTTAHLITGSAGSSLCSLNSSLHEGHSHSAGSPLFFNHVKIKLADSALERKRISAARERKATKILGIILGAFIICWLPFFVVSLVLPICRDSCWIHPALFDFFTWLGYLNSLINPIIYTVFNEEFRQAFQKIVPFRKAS
Sequence of Prostaglandin E2 receptor EP4 subtype (Homo sapiens) (P35408 whole entry): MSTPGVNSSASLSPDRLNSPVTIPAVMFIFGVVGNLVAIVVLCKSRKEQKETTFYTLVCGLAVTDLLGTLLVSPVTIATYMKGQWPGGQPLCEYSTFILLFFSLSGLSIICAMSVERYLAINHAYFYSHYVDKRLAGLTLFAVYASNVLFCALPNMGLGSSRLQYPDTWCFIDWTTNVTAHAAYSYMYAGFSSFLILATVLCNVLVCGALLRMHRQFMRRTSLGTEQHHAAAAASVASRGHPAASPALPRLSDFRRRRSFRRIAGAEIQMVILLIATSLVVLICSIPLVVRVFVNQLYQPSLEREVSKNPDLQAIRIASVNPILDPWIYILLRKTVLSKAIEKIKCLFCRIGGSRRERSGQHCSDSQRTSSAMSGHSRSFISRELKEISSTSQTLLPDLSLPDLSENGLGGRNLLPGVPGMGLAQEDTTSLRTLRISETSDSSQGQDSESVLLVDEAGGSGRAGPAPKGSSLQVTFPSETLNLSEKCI
Sequence of Melatonin receptor type 1A (Homo sapiens) (P48039 whole entry): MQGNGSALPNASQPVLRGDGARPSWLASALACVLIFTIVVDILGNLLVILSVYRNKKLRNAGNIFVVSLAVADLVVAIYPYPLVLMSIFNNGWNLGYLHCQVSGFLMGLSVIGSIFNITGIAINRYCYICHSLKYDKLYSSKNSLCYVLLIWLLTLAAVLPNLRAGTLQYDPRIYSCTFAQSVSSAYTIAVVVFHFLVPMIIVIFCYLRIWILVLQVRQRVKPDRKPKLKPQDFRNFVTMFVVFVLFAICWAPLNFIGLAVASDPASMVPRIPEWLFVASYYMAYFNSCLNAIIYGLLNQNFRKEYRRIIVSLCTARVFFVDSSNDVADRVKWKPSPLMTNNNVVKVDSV
Sequence of Type-1 angiotensin II receptor (Homo sapiens) (P30556 whole entry): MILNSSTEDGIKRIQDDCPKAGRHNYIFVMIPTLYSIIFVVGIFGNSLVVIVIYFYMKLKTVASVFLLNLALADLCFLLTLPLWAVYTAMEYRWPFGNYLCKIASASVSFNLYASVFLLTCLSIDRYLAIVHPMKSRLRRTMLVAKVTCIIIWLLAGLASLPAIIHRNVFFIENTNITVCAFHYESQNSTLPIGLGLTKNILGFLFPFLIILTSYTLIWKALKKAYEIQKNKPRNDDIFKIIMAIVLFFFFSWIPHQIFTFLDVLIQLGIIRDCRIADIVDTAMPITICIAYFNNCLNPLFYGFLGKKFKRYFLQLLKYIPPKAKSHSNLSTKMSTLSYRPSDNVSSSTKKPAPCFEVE

## O=C(c1nnc(NC2CCCC2)c2cc(Cl)c(Cl)cc12)N1CCC(O)CC1
Homo sapiens [1]
  inhibition: 17%
Rattus norvegicus
  inhibition: 12%
[2]
  inhibition: 7%
[3]
  inhibition: 53%
[4]
  inhibition: 17%
[5]
  inhibition: 10%
[6]
  inhibition: -3%
[7]
  inhibition: 22%
[8]
  inhibition: -7%
[9]
  inhibition: -4%
[10]
  inhibition: -3%
[11]
  inhibition: 4%
[12]
  inhibition: 22%
[13]
  inhibition: -4%
[14]
  inhibition: -5%
[15]
  inhibition: 81%
[16]
  inhibition: -7%
Embryonic stem cell
  Activity: inactive
[17]
  inhibition: 11%
[18]
  inhibition: -3%
[19]
  inhibition: -8%
[20]
  inhibition: -8%
[21]
  inhibition: -2%
[22]
  inhibition: -4%
Homo sapiens [23]
  inhibition: -5%
[24]
  inhibition: 8%
[25]
  inhibition: 23%
[26]
  inhibition: 0%
[27]
  inhibition: -1%
[28]
  inhibition: -5%
[29]
  inhibition: 1%
[30]
  inhibition: 2%

## Clc1cc2c(NC3CCCC3)nnc(-c3ccncc3)c2cc1Cl
Homo sapiens [1]
  inhibition: 90%
Rattus norvegicus
  inhibition: 5%
[2]
  inhibition: 14%
[3]
  inhibition: 61%
[4]
  inhibition: 34%
[5]
  inhibition: 21%
[6]
  inhibition: -8%
[7]
  inhibition: 11%
[8]
  inhibition: 10%
[9]
  inhibition: 1%
[10]
  inhibition: -6%
[11]
  inhibition: 16%
[12]
  inhibition: 98%
[13]
  inhibition: -5%
[14]
  inhibition: -8%
[15]
  inhibition: 39%
[16]
  inhibition: -1%
Embryonic stem cell
  Activity: Active
[17]
  inhibition: 26%
[18]
  inhibition: 15%
[19]
  inhibition: 4%
[20]
  inhibition: -9%
[21]
  inhibition: 7%
[22]
  inhibition: 6%
Homo sapiens [23]
  inhibition: 3%
[24]
  inhibition: 27%
[25]
  inhibition: 31%
[26]
  inhibition: 1%
[27]
  inhibition: 5%
[28]
  inhibition: -1%
[29]
  inhibition: -8%
[30]
  inhibition: 17%
